Results taken from patent US20260297118A1, “SUBSTITUTED PYRIMIDINONE AND AZAPYRIMIDINONE COMPOUNDS, COMPOSITIONS, AND USES THEREOF” (LAKEWOOD AMEDEX, INC., priority 2023, published 2026).

Columns and labels:
Assay type in all cases: cell-based
S. agalactiae ATCC-13813 = experiment: MIC, broth microdilution, S. agalactiae ATCC-13813; design: unit not given beside the values; details: S. agalactiae ATCC-13813, Gram +ve; pH 3; 18 to 24 hours
Experimental: (§1) MIC testing is conducted using the broth (Mueller Hinton Broth) microdilution procedures relevant to each organism group as established by the Clinical and Laboratory Standards Institute (CLSI; 3-7). MIC plates are prepared in accordance with CLSI (3-7). To prepare the test plates, automated liquid handlers are used to conduct serial dilutions and liquid transfers. Automated liquid handlers utilized in this study include the Multidrop 384 (Labsystems, Helsinki, Finland) and the Biomek 2000 (Beckman Coulter, Fullerton CA). The solution is diluted to desired pH using 1 M Citric Acid or 1 M NaOH buffer. A standardized inoculum of each test organism is prepared per CLSI methods (3, 5-7) to equal a 0.5 McFarland standard in the appropriate media followed by an additional 1:20 dilution (1:10 for anaerobes).
(§2) The plates are then inoculated with 10 μL of the diluted 0.5 McFarland suspension using the Biomek 2000 from low to high drug concentration, resulting in a final concentration of approximately 5×10^5 CFU/mL per well. An un-inoculated plate is incubated for the purpose of assessing solubility of the drug in the test media. The plates are stacked 3 to 4 high, covered with a sterile lid on the top plate, and incubated for 18 to 24 hours according to CLSI. The MIC is recorded as the lowest concentration of respective compound that inhibited visible growth of the organism.

E. faecium ATCC-35667 = experiment: MIC, broth microdilution, E. faecium ATCC-35667; details: E. faecium ATCC-35667, Gram +ve; pH 3; 18 to 24 hours
Experimental: as §1, §2

C. striatum ATCC-6940 = experiment: MIC, broth microdilution, C. striatum ATCC-6940; details: C. striatum ATCC-6940, Gram +ve; pH 3; 18 to 24 hours
Experimental: as §1, §2

[1] = tested on: S. saprophyticus ATCC-49907; experiment: MIC, broth microdilution, S. saprophyticus ATCC-49907; design: unit not given beside the values; details: S. saprophyticus ATCC-49907, Gram +ve; pH 3; 18 to 24 hours
Experimental: as §1, §2

E. cloacae ATCC BAA-2468 = experiment: MIC, broth microdilution, E. cloacae ATCC BAA-2468; design: unit not given beside the values; details: E. cloacae ATCC BAA-2468, Gram −ve; pH 3; 18 to 24 hours
Experimental: as §1, §2

E. coli ATCC-25922 = experiment: MIC, broth microdilution, E. coli ATCC-25922; design: unit not given beside the values; details: E. coli ATCC-25922, Gram −ve; pH 3; 18 to 24 hours
Experimental: as §1, §2

E. faecium MMX-3355 = experiment: MIC, broth microdilution, E. faecium MMX-3355; design: unit not given beside the values; details: E. faecium MMX-3355, Gram +ve; pH 3; 18 to 24 hours
Experimental: as §1, §2

A. baumannii ATCC-19606 = experiment: MIC, broth microdilution, A. baumannii ATCC-19606; design: unit not given beside the values; details: A. baumannii ATCC-19606, Gram −ve; pH 3; 18 to 24 hours
Experimental: as §1, §2

[2] = tested on: K. pneumoniae ATCC BAA-2146; experiment: MIC, broth microdilution, K. pneumoniae ATCC BAA-2146; design: unit not given beside the values; details: K. pneumoniae ATCC BAA-2146, Gram −ve; pH 3; 18 to 24 hours
Experimental: as §1, §2

[3] = tested on: S. dysgalactiae ATCC-6644; experiment: MIC, broth microdilution, S. dysgalactiae ATCC-6644; design: unit not given beside the values; details: S. dysgalactiae ATCC-6644, Gram +ve; pH 3; 18 to 24 hours
Experimental: as §1, §2

[4] = tested on: S. haemolyticus ATCC-29970; experiment: MIC, broth microdilution, S. haemolyticus ATCC-29970; details: S. haemolyticus ATCC-29970, Gram +ve; pH 3; 18 to 24 hours
Experimental: as §1, §2

M. morganii CDC-0519 = experiment: MIC, broth microdilution, M. morganii CDC-0519; design: unit not given beside the values; details: M. morganii CDC-0519, Gram −ve; pH 3; 18 to 24 hours
Experimental: as §1, §2

[5] = tested on: A. radioresistens MMX-8551; experiment: MIC, broth microdilution, A. radioresistens MMX-8551; design: unit not given beside the values; details: A. radioresistens MMX-8551, Gram −ve; pH 3; 18 to 24 hours
Experimental: as §1, §2

P. mirabilis CDC-0155 = experiment: MIC, broth microdilution, P. mirabilis CDC-0155; design: unit not given beside the values; details: P. mirabilis CDC-0155, Gram −ve; pH 3; 18 to 24 hours
Experimental: as §1, §2

E. faecalis ATCC-29212 = experiment: MIC, broth microdilution, E. faecalis ATCC-29212; design: unit not given beside the values; details: E. faecalis ATCC-29212, Gram +ve; pH 3; 18 to 24 hours
Experimental: as §1, §2

K. pneumoniae ATCC-43816 = experiment: MIC, broth microdilution, K. pneumoniae ATCC-43816; design: unit not given beside the values; details: K. pneumoniae ATCC-43816, Gram −ve; pH 3; 18 to 24 hours
Experimental: as §1, §2

H. influenzae ATCC-49247 = experiment: MIC, broth microdilution, H. influenzae ATCC-49247; design: unit not given beside the values; details: H. influenzae ATCC-49247, Gram −ve; pH 3; 18 to 24 hours
Experimental: as §1, §2

[6] = tested on: Staphylococcus aureus (43330); experiment: MIC, broth microdilution, Staphylococcus aureus (43330); details: pH 3, Mueller Hinton Broth, 18 to 24 hours, read-out: MIC
Experimental: as §1, §2

E. coli MMX-8870 = experiment: MIC, broth microdilution, E. coli MMX-8870; details: E. coli MMX-8870, Gram −ve; pH 3; 18 to 24 hours
Experimental: as §1, §2

S. pyogenes ATCC-49399 = experiment: MIC, broth microdilution, S. pyogenes ATCC-49399; design: unit not given beside the values; details: S. pyogenes ATCC-49399, Gram +ve; pH 3; 18 to 24 hours
Experimental: as §1, §2

S. aureus ATCC -3591 = experiment: MIC, broth microdilution, S. aureus ATCC -3591; design: unit not given beside the values; details: S. aureus ATCC -3591, Gram +ve; pH 3; 18 to 24 hours
Experimental: as §1, §2

E. faecalis MMX-3353 = experiment: MIC, broth microdilution, E. faecalis MMX-3353; details: E. faecalis MMX-3353, Gram +ve; pH 3; 18 to 24 hours
Experimental: as §1, §2

P. aeruginosa ATCC-27853 = experiment: MIC, broth microdilution, P. aeruginosa ATCC-27853; design: unit not given beside the values; details: P. aeruginosa ATCC-27853, Gram −ve; pH 3; 18 to 24 hours
Experimental: as §1, §2

C. freundii CDC-0157 = experiment: MIC, broth microdilution, C. freundii CDC-0157; design: unit not given beside the values; details: C. freundii CDC-0157, Gram −ve; pH 3; 18 to 24 hours
Experimental: as §1, §2

Escherichia coli (25922) = experiment: MIC, broth microdilution, Escherichia coli (25922); details: pH 3, Mueller Hinton Broth, 18 to 24 hours, read-out: MIC
Experimental: as §1, §2

Candida albicans (22972) = experiment: MIC, broth microdilution, Candida albicans (22972); details: pH 3, Mueller Hinton Broth, 18 to 24 hours, read-out: MIC
Experimental: as §1, §2

S. aureus ATCC-29213 = experiment: MIC, broth microdilution, S. aureus ATCC-29213; design: unit not given beside the values; details: S. aureus ATCC-29213, Gram +ve; pH 3; 18 to 24 hours
Experimental: as §1, §2

[7] = tested on: Pseudomonas aeruginosa (27853); experiment: MIC, broth microdilution, Pseudomonas aeruginosa (27853); details: pH 3, Mueller Hinton Broth, 18 to 24 hours, read-out: MIC
Experimental: as §1, §2

[8] = tested on: Pseudomonas aeruginosa (6326); experiment: MIC, broth microdilution, Pseudomonas aeruginosa (6326); details: pH 4-5, 18 to 24 hours
Experimental: as §1, §2

[9] = tested on: Pseudomonas aeruginosa (6328); experiment: MIC, broth microdilution, Pseudomonas aeruginosa (6328); details: pH 4-5, 18 to 24 hours
Experimental: as §1, §2

Escherichia coli (6258) = experiment: MIC, broth microdilution, Escherichia coli (6258); details: pH 4-5, 18 to 24 hours
Experimental: as §1, §2

[10] = tested on: Pseudomonas aeruginosa (6234); experiment: MIC, broth microdilution, Pseudomonas aeruginosa (6234); details: pH 4-5, 18 to 24 hours
Experimental: as §1, §2

Escherichia coli (6098) = experiment: MIC, broth microdilution, Escherichia coli (6098); details: pH 4-5, 18 to 24 hours
Experimental: as §1, §2

[11] = tested on: Pseudomonas aeruginosa (6160); experiment: MIC, broth microdilution, Pseudomonas aeruginosa (6160); details: pH 4-5, 18 to 24 hours
Experimental: as §1, §2

Escherichia coli (6260) = experiment: MIC, broth microdilution, Escherichia coli (6260); details: pH 4-5, 18 to 24 hours
Experimental: as §1, §2

Escherichia coli (0102) = experiment: MIC, broth microdilution, Escherichia coli (0102); details: pH 4-5, 18 to 24 hours
Experimental: as §1, §2

Escherichia coli (6259) = experiment: MIC, broth microdilution, Escherichia coli (6259); details: pH 4-5, 18 to 24 hours
Experimental: as §1, §2

[12] = tested on: Pseudomonas aeruginosa (0103); experiment: MIC, broth microdilution, Pseudomonas aeruginosa (0103); details: pH 4-5, 18 to 24 hours
Experimental: as §1, §2

CCCCOP(=O)(O)OC[C@H]1O[C@@H](n2ccc(N(C)C)nc2=O)C(F)(F)[C@@H]1O [LAK-023, (2R,3S,5R)-5-(4-N,N-dimethylamino-2-oxopyrimidin-1(2H)-yl)-2,2-difluoro-3-hydroxytetrahydrofuranyl-2-methyl butyl phosphate]
MIC (S. agalactiae ATCC-13813): 0.39
MIC (E. faecium ATCC-35667): 3.13
MIC (C. striatum ATCC-6940): 1.56
MIC [1]: 1.56
MIC (E. cloacae ATCC BAA-2468): 0.78
MIC (E. coli ATCC-25922): 0.78
MIC (E. faecium MMX-3355): 1.56
MIC (A. baumannii ATCC-19606): 0.78
MIC [2]: 0.78
MIC [3]: 0.78
MIC [4]: 0.78
MIC (M. morganii CDC-0519): 3.13
MIC [5]: 0.78
MIC (P. mirabilis CDC-0155): 1.56
MIC (E. faecalis ATCC-29212): 3.13
MIC (K. pneumoniae ATCC-43816): 1.56
MIC (H. influenzae ATCC-49247): 0.39
MIC [6]: 3.8 mg/mL
MIC (E. coli MMX-8870): 0.78
MIC (S. pyogenes ATCC-49399): 1.56
MIC (S. aureus ATCC -3591): 6.25
MIC (E. faecalis MMX-3353): 6.25
MIC (P. aeruginosa ATCC-27853): 0.39
MIC (C. freundii CDC-0157): 1.56
MIC (Escherichia coli (25922)): 0.8 mg/mL
MIC (Candida albicans (22972)): > 12.5 mg/mL
MIC (S. aureus ATCC-29213): 1.56
MIC [7]: 0.4 mg/mL

CCCCOP(=O)(O)OC[C@H]1O[C@@H](n2ccc(N)nc2=O)C[C@@H]1O [R-1, (2R,3S,5R)-5-(4-amino-2-oxopyrimidin-1(2H)-yl)-3-hydroxytetrahydrofuran-2-methyl butyl phosphate]
MIC [8]: 25 mg/mL
MIC [9]: 25 mg/mL
MIC (Escherichia coli (6258)): 50 mg/mL
MIC [10]: 25 mg/mL
MIC (Escherichia coli (6098)): 50 mg/mL
MIC [11]: 25 mg/mL
MIC (Escherichia coli (6260)): 50 mg/mL
MIC (Escherichia coli (0102)): 50 mg/mL
MIC (Escherichia coli (6259)): 50 mg/mL
MIC [12]: 25 mg/mL

CCCCOP(=O)(O)OC[C@H]1O[C@@H](n2ccc(N)nc2=O)[C@H](OC)[C@@H]1O [R-5, (2R,3S,4R,5R)-5-(4-amino-2-oxopyrimidin-1(2H)-yl)-3-hydroxy-4-methoxy-tetrahydrofuran-2-methyl butyl phosphate]
MIC [8]: 25 mg/mL
MIC [9]: 25 mg/mL
MIC (Escherichia coli (6258)): 100 mg/mL
MIC [10]: 25 mg/mL
MIC (Escherichia coli (6098)): 100 mg/mL
MIC [11]: 25 mg/mL
MIC (Escherichia coli (6260)): 100 mg/mL
MIC (Escherichia coli (0102)): 50 mg/mL
MIC (Escherichia coli (6259)): 50 mg/mL
MIC [12]: 25 mg/mL
